Patent publication US20070093520A1, “Method of treatment of diarrhea-predominant irritable bowel syndrome in a subject” (priority 2005, published 2007)

How the values were obtained:
[1] = tested on: non-constipated IBS subjects; assay: Phase II clinical trial Study S241.2.113, adequate relief of IBS symptoms; format: in vivo, human; settings: 2 mg TID
[2] = in vivo
Description: One subject took fluvoxamine while taking cilansetron 2 mg TID.

[3] = tested on: diarrhea-predominant IBS subjects; assay: 3007 Study: 12-lead ECG abnormalities; format: in vivo, human; settings: Study 3007
Description: Resting 12-lead ECGs were performed at Day 1 (Visit 5 of the core protocol), Months 1, 6, and 12 (end of study or early termination visit). A centralized ECG service was used to evaluate all ECG tracings to supply consistent standardized ECG interpretation.
All analyses and summaries for ECG assessments were based on the evaluation performed in the central ECG laboratory.
For Study 3007, “baseline’ was defined as the pre-treatment period of core Study 3006 for subjects randomized to the cilansetron treatment group in Study 3006 and as the last post-Baseline visit of Study 3006 (normally Visit 5) for subjects randomized to the placebo group in Study 3006. The by-timepoint analyses were based on timepoints defined in Section 5.7.1.2.
Summary statistics are presented for PR, QRS, QT, and QTc intervals (Bazett and Fridericia formulas) and heart rate at each visit and at Endpoint, as well as for change from Baseline results at each post-Baseline visit and at Endpoint. Bazett's and Fridericia's QTc intervals were calculated based on the following formulas: Bazett: QTc intervals=QT/√RR Fridericia: QTc intervals=QT/^3√RR
Markedly abnormal ECG parameter values collected after the first dose of study medication and within 30 days of the last dose of study medication were summarized overall. The following criteria were applied to identify markedly abnormal parameter values: • PR ≧0.210 sec; • QRS ≧0.120 sec; • QTc >0.440 sec;
Heart rate ≧120 bpm or ≦50 bpm or change of ≧15 bpm.
The determination of markedly abnormal for QTc was carried out separately for both the Bazett correction and the Fridericia correction.
The incidence of treatment-emergent ECG abnormalities is presented overall and by type of abnormality. A treatment-emergent ECG abnormality was an abnormality identified by the ECG core laboratory that was not present at baseline (e.g., prior to the entry into core Study 3006), and was observed on or after initiation of study medication and up to 30 days after discontinuation of study medication. The incidence of treatment-emergent ECG abnormalities is presented by time interval, as well as overall for the entire treatment period. The incidence of treatment-emergent abnormalities is also presented in more general categories (e.g., presenting incidence of treatment-emergent myocardial infarction overall as well as by location), depending on whether it mitigates the interpretation.
The overall incidence of marked abnormalities for ECG parameters is presented overall by gender and overall.

[4] = tested on: subjects with ROME II defined IBS-D; assay: 5050 Study: IBS-QoL survey; format: in vivo, human; parameters: IBS-QoL subscale score: Interference with activity / IBS-QoL subscale score: Food avoidance / IBS-QoL subscale score: Sexual / IBS-QoL subscale score: Health Worry / IBS-QoL subscale score: Relationship / IBS-QoL subscale score: Body Image / IBS-QoL subscale score: Social Reaction / IBS-QoL subscale score: Dysphoria: scale not given here; settings: Study 5050
Description: The 5050 Study was a double-blind, randomized, placebo-controlled study to evaluate the long-term safety and tolerability of cilansetron 2 mg taken on an as needed (prn) basis for 1 year by male and female subjects with ROME II defined IBS-D. The study was performed in 68 centers. Patients were randomized in a 3:1 ratio to receive either cilansetron 2 mg prn or placebo, up to 3 times a day. Safety parameters were explored by comparing the double-blind groups, average daily doses and treatment exposure. Patient visits were scheduled as follows: Visit 1 (pretreatment), Visit 2 (Day 1), Visit 3 (Month 1), Visit 4 (Month 3), Visit 5 (Month 6), Visit 6 (Month 9), and Visit 7 (Month 12). Safety assessments included: adverse events (AEs)/serious adverse events (SAES); laboratory parameters (pretreatment visit and at Months 1, 6, and 12); electrocardiograms (pretreatment visit and at Months 1, 6, and 12); vital signs (at each visit); physical examinations and body weight (pretreatment visit and at Month 12); prior and concomitant medication use (each visit and/or through spontaneous reporting); stool cards for occult blood (every visit except Visit 1). The number of tablets taken per day was recorded daily through a validated interactive voice response system. Patients who met the ROME criteria for IBS and ROME II criteria for the diarrhea predominant subpopulation were included in the study. Patients with acute colitis of any etiology, history of chronic colitis of any etiology, or a history of intestinal obstruction, stricture, toxic megacolon, gastrointestinal (GI) perforation, or fecal impaction were excluded from the study.
Subjects were asked to complete a IBS-QOL Survey at Day 1 (Visit 5 of the core protocol), Month 6 and Month 12 (end of study or early termination) in order to assess possible changes of their QOL. The IBS-QoL survey, a 34 item IBS-specific QoL questionnaire consisting of 8 subscales (i.e., interference with activity; body image; health worry; food avoidance; social reaction; sexual; relationship; and dysphoria) was completed by patients at baseline and at later specified time points (e.g., at week 12 and at week 16 in Study 5050).

[5] = Table 10.5, time point not stated

## Cc1nccn1C[C@H]1CCc2c(c3cccc4c3n2CCC4)C1=O [cilansetron, (R)-(−)-4,5,6,8,9,10-hexahydro-10-[(2-methyl-1H-imidazol-1-yl)methyl]-11H-pyrido-[3,2,1-jk]-carbazol-11-one]
[1]
  adequate relief of IBS symptoms versus placebo: superior to placebo
[2]
  increase of cilansetron plasma levels: approximately six to seven
[3]; female subjects
  marked ECG abnormality: decreased heart rate: 6%
  marked ECG abnormality: prolonged QTc(B): 23%
  marked ECG abnormality: prolonged QTc(F): 10%
  treatment-emergent ECG abnormality: early repolarization-normal variant: 2%
  treatment-emergent ECG abnormality: poor R-wave progression: 13%
  treatment-emergent ECG abnormality: sinus arrhythmia: 19%
[3]; male subjects
  marked ECG abnormality: decreased heart rate: 13%
  marked ECG abnormality: prolonged QTc(B): 6%
  marked ECG abnormality: prolonged QTc(F): 3%
  treatment-emergent ECG abnormality: early repolarization-normal variant: 19%
  treatment-emergent ECG abnormality: poor R-wave progression: 6%
  treatment-emergent ECG abnormality: sinus arrhythmia: 25%
[3]; overall
  incidence of prolonged QT interval: 4%
  marked ECG abnormality: heart rate decrease: 14%
  marked ECG abnormality: heart rate increase: 15%
  marked ECG abnormality: prolonged QTc(B): 17%
  subjects with a post-Baseline marked ECG abnormality: 50%
  subjects with a treatment-emergent ECG abnormality: 62%
  treatment-emergent ECG abnormality: borderline LA enlargement: 6%
  treatment-emergent ECG abnormality: early R-wave transition: 6%
  treatment-emergent ECG abnormality: early repolarization-normal variant: 8%
  treatment-emergent ECG abnormality: non-specific T-wave changes: 7%
  treatment-emergent ECG abnormality: poor R-wave progression: 11%
  treatment-emergent ECG abnormality: sinus arrhythmia: 21%
  treatment-emergent ECG abnormality: sinus bradycardia: 10%
[4]; [5]
  IBS-QoL subscale score: Body Image: 61.7
  IBS-QoL subscale score: Dysphoria: 47.4
  IBS-QoL subscale score: Food avoidance: 38.3
  IBS-QoL subscale score: Health Worry: 65.3
  IBS-QoL subscale score: Interference with activity: 41.1
  IBS-QoL subscale score: Relationship: 62.5
  IBS-QoL subscale score: Sexual: 72.2
  IBS-QoL subscale score: Social Reaction: 58.3
[4]; p<0.050
  change from baseline of IBS-QoL total score, interference with activity, body image, sexual score and dysphoria: significant improvement
